In paper PMC12966373 (Nature Communications, 2026):

Key:
[1] = Coacervate assembly via pH shift: size and number by microscopy; format: physicochemical; conditions: peptide 0.5 mg/mL or higher
[2] = tested on: B16-F10 murine melanoma cells; assay: Coacervate uptake in B16-F10 cells; format: cell-based, mouse; conditions: particles pre-assembled at 0.5 mg/mL, diluted 1:10 to 1:3 in media; 4 h and 24 h
[3] = cited from earlier work
U2OS cells = assay: Coacervate uptake and stability over 5 days in U2OS cells; format: cell-based, human; conditions: particles pre-assembled at 0.5 mg/mL, diluted 1:10 to 1:3 in media; 4 h and 24 h
primary human monocytes = assay: Coacervate uptake in primary human monocytes; format: cell-based; conditions: particles pre-assembled at 0.5 mg/mL, diluted 1:10 to 1:3 in media; 4 h and 24 h

- average particle diameter [1]: > 2 µm
Substance: GHGVYGHGVYGHGPYGHGPYGHGLYW [HBpep]
- uptake by cells [2]: highly efficient uptake
- solubility in acidic buffer ([3]; pH 4.5): largely soluble
- behaviour at physiological pH ([3]; pH 7.4, standard conditions): phase separate
- uptake by cells (U2OS cells): highly efficient uptake
- uptake by cells (primary human monocytes): highly efficient uptake
